Assay results published in ChEMBL document CHEMBL5226343, “Structure-Activity Relationship of USP5 Inhibitors” (J Med Chem, 2021).
Each block holds one molecule with its values, some of them ahead of it.

Key:
[1] = biological target: T1, Protein deacetylase HDAC6 (Homo sapiens, UniProt Q9UBN7)
T1 sequence (Q9UBN7 whole entry): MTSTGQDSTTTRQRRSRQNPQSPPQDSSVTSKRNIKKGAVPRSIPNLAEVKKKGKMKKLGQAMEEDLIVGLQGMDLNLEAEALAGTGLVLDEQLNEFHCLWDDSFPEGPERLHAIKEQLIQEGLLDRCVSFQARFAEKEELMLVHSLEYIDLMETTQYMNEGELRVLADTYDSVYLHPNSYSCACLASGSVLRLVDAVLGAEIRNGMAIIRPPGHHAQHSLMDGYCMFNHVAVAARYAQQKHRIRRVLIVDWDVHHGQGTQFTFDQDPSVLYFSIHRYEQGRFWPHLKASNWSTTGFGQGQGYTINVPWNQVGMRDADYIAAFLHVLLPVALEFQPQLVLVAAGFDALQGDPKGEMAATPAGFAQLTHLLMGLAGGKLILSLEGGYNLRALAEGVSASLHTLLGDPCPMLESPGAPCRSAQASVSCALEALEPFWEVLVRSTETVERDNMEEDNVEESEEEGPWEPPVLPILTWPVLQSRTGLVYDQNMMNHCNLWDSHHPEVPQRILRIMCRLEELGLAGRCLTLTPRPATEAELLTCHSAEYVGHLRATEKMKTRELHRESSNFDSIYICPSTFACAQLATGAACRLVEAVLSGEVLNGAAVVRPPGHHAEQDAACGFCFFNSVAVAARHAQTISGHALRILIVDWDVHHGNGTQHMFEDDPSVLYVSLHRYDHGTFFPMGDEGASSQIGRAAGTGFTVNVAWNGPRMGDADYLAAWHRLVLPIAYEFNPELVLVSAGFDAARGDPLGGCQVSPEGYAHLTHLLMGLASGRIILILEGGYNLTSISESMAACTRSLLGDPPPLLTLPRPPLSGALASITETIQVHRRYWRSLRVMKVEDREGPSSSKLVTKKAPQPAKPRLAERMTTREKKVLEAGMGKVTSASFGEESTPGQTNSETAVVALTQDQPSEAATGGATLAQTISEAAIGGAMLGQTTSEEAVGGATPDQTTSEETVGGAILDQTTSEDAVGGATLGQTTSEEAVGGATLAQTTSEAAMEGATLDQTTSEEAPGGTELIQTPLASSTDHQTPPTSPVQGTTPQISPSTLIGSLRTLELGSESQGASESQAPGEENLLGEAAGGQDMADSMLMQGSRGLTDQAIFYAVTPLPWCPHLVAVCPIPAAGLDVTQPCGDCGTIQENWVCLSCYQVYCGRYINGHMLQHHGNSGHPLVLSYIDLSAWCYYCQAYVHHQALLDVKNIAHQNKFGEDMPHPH

[2] = Metabolic stability of the compound in human liver microsomes assessed as parent compound remaining at 1 uM measured for 60 mins in presence of NADPH regenerating system by LC/MS analysis; type: ADME, Microsome; conditions: read-out: Stability
[3] = Metabolic stability of the compound in CD-1 mouse liver microsomes assessed as parent compound remaining at 1 uM measured after 60 mins in presence of NADPH regenerating system by LC/MS analysis; type: ADME, Microsome; conditions: read-out: Stability
[4] = biological target: Ubiquitin carboxyl-terminal hydrolase isozyme L1 (Homo sapiens) (UniProt P09936); experiment: Inhibition of UCH-L1 (unknown origin) at 2.5 uM
[5] = biological target: T2, Ubiquitin carboxyl-terminal hydrolase 5 (Homo sapiens) (UniProt P45974); experiment: Inhibition of USP5 (unknown origin) at 2.5 uM
T2 sequence (whole entry): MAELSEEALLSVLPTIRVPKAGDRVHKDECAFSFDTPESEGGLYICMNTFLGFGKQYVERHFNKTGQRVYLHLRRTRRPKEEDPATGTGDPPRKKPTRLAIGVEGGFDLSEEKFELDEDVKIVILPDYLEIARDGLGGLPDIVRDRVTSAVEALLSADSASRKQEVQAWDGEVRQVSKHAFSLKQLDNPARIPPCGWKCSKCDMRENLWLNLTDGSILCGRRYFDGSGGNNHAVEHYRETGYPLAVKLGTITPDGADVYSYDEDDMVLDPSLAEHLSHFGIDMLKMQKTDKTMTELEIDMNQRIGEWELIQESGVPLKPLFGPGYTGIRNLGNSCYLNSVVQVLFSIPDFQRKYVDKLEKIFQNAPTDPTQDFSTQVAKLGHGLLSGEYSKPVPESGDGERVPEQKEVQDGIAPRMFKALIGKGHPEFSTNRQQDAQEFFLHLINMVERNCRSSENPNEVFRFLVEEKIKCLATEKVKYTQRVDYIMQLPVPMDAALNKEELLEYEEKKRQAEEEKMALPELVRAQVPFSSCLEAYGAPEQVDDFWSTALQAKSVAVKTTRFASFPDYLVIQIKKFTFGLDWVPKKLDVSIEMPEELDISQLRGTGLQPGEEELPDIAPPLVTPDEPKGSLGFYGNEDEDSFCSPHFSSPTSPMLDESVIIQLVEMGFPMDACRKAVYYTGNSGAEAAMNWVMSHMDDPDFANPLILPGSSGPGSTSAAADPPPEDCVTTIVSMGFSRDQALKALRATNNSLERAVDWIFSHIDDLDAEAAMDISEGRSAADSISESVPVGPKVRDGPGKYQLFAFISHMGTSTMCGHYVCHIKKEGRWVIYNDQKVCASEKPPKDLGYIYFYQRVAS

[6] = biological target: Ubiquitin carboxyl-terminal hydrolase 9X (Homo sapiens) (UniProt Q93008); experiment: Inhibition of USP9X (unknown origin) at 2.5 uM
[7] = biological target: Ubiquitin carboxyl-terminal hydrolase 7 (Homo sapiens, UniProt Q93009); experiment: Inhibition of USP7 (unknown origin)
[8] = biological target: T3, Ubiquitin carboxyl-terminal hydrolase 2 (Homo sapiens, UniProt O75604); experiment: Inhibition of USP2 (unknown origin)
T3 sequence (O75604 whole entry): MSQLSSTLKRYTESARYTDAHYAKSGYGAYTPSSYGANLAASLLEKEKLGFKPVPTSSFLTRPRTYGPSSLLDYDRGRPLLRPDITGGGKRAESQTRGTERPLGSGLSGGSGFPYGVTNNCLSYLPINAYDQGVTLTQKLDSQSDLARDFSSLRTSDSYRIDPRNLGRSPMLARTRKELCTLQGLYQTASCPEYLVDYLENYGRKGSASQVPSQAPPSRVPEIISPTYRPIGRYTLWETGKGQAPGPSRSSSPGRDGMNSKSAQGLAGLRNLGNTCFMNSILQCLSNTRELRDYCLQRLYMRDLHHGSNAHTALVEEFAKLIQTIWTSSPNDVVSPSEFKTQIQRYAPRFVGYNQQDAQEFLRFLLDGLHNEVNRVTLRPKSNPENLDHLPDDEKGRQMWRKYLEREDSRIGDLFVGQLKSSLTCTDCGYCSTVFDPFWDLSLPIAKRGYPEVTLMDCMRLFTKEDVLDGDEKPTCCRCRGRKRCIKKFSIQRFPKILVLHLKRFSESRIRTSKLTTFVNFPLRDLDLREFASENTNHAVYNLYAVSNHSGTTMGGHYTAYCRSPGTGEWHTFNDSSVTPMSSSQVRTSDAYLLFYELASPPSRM

[9] = biological target: T4, Ubiquitin carboxyl-terminal hydrolase 4 (Homo sapiens, UniProt Q13107); experiment: Inhibition of USP4 (unknown origin)
T4 sequence (Q13107 whole entry): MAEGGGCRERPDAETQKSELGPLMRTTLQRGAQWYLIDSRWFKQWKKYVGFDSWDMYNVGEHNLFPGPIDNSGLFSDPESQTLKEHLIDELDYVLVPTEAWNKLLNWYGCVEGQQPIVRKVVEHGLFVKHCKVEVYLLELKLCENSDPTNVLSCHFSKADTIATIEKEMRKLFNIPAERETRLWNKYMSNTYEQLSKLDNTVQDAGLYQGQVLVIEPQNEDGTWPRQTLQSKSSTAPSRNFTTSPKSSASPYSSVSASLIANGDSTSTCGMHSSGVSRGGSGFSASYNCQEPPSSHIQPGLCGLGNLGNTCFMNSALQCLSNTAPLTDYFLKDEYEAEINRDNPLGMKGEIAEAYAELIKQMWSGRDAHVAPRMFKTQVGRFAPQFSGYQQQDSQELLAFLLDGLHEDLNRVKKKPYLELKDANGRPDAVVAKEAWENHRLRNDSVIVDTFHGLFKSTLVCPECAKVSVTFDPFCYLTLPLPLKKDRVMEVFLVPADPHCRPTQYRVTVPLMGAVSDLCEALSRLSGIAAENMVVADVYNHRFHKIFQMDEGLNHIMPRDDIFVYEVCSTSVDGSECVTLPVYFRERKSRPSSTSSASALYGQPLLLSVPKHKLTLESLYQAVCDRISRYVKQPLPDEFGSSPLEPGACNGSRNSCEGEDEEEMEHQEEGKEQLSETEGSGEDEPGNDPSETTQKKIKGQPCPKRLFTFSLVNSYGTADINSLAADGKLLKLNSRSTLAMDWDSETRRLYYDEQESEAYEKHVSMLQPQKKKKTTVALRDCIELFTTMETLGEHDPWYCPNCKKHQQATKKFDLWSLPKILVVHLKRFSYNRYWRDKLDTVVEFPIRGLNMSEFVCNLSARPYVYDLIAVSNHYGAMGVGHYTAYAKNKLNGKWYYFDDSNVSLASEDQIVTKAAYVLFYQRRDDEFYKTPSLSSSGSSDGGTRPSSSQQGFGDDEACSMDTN

[10] = biological target: T5, Ubiquitin carboxyl-terminal hydrolase 8 (Homo sapiens, UniProt P40818); experiment: Inhibition of USP8 (unknown origin)
T5 sequence (P40818 whole entry): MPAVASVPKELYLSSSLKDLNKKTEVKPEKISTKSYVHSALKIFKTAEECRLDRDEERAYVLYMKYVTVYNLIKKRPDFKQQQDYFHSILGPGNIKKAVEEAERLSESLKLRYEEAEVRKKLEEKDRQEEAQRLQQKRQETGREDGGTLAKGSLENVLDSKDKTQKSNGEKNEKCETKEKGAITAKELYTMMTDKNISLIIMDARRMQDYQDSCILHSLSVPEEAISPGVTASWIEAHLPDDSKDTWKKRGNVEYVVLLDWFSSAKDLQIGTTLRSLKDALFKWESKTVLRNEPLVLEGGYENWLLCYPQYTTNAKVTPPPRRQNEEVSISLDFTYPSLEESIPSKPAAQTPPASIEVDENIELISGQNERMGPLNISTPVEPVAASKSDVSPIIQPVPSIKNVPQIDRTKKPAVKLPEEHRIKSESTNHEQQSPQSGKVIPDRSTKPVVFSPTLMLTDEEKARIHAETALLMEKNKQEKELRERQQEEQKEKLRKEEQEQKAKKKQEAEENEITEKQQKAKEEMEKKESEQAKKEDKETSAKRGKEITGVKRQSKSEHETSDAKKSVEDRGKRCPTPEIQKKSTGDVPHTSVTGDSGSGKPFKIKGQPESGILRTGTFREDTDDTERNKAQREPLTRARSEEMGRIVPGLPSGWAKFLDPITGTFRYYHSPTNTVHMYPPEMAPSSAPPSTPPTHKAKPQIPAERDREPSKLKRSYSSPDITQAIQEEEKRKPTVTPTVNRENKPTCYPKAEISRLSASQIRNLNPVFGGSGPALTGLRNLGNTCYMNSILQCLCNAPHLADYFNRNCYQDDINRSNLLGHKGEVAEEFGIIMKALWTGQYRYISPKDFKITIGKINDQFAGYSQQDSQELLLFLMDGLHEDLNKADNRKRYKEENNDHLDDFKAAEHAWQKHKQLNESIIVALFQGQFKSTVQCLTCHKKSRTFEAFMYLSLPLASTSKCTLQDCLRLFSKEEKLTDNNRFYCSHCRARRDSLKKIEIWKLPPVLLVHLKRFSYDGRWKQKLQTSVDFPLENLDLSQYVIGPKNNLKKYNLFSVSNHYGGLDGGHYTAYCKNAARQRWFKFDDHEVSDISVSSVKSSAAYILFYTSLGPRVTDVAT

[11] = biological target: T6, Ubiquitin carboxyl-terminal hydrolase 5 (Homo sapiens, UniProt P45974); experiment: Inhibition of USP5 (unknown origin)
T6 sequence (P45974 whole entry): T2 sequence (whole entry)

Ubiquitin carboxyl-terminal hydrolase 9X (Homo sapiens), sequence (Q93008 whole entry): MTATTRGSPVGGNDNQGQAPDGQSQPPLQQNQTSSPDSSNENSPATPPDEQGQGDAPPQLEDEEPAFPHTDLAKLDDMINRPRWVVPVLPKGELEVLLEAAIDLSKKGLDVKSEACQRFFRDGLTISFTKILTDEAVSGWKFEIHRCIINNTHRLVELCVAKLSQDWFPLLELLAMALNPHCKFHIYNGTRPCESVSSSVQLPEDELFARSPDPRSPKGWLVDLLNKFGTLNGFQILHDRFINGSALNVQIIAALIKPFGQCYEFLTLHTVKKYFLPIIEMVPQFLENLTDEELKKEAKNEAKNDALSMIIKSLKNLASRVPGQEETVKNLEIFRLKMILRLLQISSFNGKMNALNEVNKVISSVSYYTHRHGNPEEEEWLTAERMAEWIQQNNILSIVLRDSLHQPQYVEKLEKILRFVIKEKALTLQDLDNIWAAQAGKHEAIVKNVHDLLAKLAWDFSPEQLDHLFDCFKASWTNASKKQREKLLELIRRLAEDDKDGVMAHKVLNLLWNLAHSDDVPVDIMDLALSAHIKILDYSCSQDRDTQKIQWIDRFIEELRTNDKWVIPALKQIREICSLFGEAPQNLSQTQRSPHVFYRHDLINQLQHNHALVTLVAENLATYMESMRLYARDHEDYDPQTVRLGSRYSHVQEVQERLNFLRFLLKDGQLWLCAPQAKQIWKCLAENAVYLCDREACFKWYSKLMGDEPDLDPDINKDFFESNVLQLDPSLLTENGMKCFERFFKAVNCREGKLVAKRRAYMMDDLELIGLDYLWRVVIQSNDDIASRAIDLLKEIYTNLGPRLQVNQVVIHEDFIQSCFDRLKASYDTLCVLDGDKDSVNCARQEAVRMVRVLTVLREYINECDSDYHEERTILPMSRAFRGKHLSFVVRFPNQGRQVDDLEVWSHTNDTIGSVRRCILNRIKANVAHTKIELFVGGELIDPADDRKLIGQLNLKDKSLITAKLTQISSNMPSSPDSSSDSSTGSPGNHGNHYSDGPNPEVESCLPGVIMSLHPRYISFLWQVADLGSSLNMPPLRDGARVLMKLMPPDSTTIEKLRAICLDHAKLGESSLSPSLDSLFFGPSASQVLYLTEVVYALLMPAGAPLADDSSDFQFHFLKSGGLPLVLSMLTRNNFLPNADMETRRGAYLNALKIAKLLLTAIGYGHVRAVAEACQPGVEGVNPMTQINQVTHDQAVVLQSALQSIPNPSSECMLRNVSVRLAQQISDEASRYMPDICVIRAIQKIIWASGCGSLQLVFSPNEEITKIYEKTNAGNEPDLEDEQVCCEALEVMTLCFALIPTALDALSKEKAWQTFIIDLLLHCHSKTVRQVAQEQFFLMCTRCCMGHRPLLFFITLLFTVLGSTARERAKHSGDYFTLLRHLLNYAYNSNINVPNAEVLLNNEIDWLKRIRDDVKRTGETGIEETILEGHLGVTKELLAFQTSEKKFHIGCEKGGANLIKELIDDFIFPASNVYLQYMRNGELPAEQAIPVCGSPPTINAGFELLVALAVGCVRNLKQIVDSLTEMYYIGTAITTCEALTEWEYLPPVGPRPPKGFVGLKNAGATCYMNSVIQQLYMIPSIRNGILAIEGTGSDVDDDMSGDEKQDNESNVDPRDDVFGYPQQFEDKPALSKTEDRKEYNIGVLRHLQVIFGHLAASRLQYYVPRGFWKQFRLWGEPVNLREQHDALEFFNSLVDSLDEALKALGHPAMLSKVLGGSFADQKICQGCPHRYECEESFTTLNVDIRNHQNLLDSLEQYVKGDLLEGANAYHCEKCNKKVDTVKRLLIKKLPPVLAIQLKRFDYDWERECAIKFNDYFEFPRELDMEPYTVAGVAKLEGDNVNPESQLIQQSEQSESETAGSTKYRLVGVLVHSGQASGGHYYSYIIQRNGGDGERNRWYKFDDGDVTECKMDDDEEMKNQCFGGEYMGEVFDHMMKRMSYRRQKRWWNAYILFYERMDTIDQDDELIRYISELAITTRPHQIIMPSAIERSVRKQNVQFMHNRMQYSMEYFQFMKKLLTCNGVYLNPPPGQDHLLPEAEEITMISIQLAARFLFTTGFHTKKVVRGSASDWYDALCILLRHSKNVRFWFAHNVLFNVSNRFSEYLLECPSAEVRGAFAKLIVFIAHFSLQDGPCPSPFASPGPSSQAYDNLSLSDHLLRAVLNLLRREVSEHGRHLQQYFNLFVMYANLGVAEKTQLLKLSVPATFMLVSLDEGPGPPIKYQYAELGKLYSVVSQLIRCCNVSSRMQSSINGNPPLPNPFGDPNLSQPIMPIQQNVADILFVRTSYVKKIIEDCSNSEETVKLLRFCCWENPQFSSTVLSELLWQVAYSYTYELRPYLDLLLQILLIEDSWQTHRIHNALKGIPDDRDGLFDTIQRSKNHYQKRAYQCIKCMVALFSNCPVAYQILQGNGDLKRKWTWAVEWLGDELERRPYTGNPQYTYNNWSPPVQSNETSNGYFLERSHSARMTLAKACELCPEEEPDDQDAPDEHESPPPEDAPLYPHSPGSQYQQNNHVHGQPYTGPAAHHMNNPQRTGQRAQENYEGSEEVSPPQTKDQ
Ubiquitin carboxyl-terminal hydrolase 7, sequence (Q93009 whole entry): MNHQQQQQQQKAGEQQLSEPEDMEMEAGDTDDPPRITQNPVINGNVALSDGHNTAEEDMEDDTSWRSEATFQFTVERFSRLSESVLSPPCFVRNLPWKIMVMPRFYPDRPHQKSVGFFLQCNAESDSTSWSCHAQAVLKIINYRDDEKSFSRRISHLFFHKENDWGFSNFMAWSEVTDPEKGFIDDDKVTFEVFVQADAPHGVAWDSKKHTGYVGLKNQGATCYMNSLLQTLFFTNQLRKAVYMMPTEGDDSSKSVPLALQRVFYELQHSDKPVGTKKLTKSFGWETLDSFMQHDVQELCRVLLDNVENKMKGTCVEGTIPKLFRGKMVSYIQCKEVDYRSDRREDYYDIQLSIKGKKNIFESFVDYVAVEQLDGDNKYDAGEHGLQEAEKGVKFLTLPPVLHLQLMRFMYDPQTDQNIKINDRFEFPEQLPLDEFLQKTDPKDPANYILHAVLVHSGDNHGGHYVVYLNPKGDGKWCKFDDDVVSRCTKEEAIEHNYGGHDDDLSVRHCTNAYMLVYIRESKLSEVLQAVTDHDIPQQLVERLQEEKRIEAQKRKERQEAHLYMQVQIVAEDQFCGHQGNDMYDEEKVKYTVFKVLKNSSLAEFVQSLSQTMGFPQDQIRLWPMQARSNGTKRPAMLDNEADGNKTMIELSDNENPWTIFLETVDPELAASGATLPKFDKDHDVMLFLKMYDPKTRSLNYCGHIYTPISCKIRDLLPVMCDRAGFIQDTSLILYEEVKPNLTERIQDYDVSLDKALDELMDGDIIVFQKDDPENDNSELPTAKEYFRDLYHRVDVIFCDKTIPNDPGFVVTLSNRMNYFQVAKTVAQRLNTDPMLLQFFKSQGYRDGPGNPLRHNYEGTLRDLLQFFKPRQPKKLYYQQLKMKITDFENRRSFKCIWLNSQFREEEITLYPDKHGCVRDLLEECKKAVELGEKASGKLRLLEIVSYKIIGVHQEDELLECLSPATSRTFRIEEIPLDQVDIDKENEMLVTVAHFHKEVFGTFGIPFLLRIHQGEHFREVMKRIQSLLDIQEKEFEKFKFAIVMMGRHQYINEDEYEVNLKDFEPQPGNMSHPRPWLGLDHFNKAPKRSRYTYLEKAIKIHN
Ubiquitin carboxyl-terminal hydrolase isozyme L1 (Homo sapiens), sequence (P09936 whole entry, looked up): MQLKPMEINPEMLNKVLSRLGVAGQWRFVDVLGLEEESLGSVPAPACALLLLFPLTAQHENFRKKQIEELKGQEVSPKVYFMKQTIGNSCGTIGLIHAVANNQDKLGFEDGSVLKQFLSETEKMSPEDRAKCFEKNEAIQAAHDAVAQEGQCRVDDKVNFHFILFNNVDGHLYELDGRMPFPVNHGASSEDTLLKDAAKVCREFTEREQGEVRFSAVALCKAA

Compound: O=C(O)CNC(=O)c1ccc(S(=O)(=O)N2CCC(c3ccc(Cl)cc3)CC2)cn1
- remaining at 1 h, 1 µM [2]: > 90%
- remaining at 1 h, 1 µM [3]: > 90%

Compound: O=C(O)CNC(=O)c1ccc(S(=O)(=O)N2CC(c3ccccc3)C2)cc1
- Kd [1]: > 1000 µM

Compound: CN1CCC(NS(=O)(=O)c2ccc(C(=O)NCC(=O)O)cc2)CC1
- Kd [1]: > 1000 µM

Compound: Cn1cc(S(=O)(=O)N2CCC(c3ccccc3)CC2)cc1C(=O)NCC(=O)O
- Kd [1]: > 1000 µM

Compound: CN(C)C1CCN(S(=O)(=O)c2ccc(C(=O)NCC(=O)O)cc2)CC1
- Kd [1]: > 760 µM

Compound: O=C(O)CNC(=O)c1ccc(S(=O)(=O)N2CCC(N3CCOCC3)CC2)cc1
- Kd [1]: > 1000 µM

Compound: O=C(O)CNC(=O)c1ccc(S(=O)(=O)N2CCC(c3ccccc3)C2)cc1 (stereo not drawn)
- Kd [1]: > 1000 µM

Compound: CCC[C@H](NC(=O)/C(C#N)=C/c1cccc(Br)n1)c1ccccc1
- inhibition [4]: 30%
- inhibition [5]: 50%
- inhibition [6]: 45%

Compound: O=C(O)CNC(=O)c1ccc(S(=O)(=O)N2CCCC(c3ccccc3)CC2)cc1 (stereo not drawn)
- Kd [1]: > 640 µM

Compound: N#CSc1cc(SC#N)c(N)nc1N
- EC50 [7]: 6.9 µM
- EC50 [8]: 7.2 µM
- EC50 [9]: 3.9 µM
- EC50 [10]: 4.9 µM
- EC50 [11]: 8.6 µM

Second part, the molecule after the results:

- Kd [1]: 520 µM
Compound: O=C(O)CNC(=O)c1ccc(S(=O)(=O)N2CCC(N3CCCC3)CC2)cc1

- Kd [1]: 160 µM
Compound: Cc1cc(S(=O)(=O)N2CCC(c3ccccc3)CC2)ccc1C(=O)NCC(=O)O

- Kd [1]: 290 µM
Compound: O=C(O)CNC(=O)c1ccc(S(=O)(=O)N2CCc3ccccc3C2)cc1

- Kd [1]: 370 µM
Compound: CN1CCN(C2CCN(S(=O)(=O)c3ccc(C(=O)NCC(=O)O)cc3)CC2)CC1

- Kd [1]: 340 µM
Compound: O=C(O)CNC(=O)c1ccc(S(=O)(=O)N2CC=C(c3ccccc3)CC2)cc1

- Kd [1]: > 480 µM
Compound: O=C(O)CNC(=O)c1ccc(S(=O)(=O)N2CCN(c3ccccc3)CC2)cc1

- Kd [1]: 410 µM
Compound: CN1CCC2(CC1)CCN(S(=O)(=O)c1ccc(C(=O)NCC(=O)O)cc1)CC2

- Kd [1]: > 480 µM
Compound: O=C(O)CNC(=O)c1ccc(S(=O)(=O)N2Cc3ccccc3C2)cc1

- Kd [1]: 150 µM
Compound: O=C(O)CNC(=O)c1ccc(S(=O)(=O)N2CCC(c3ccccc3)CC2)cc1Cl

- Kd [1]: 440 µM
Compound: O=C(O)CNC(=O)c1ccc(S(=O)(=O)N2CCC3(CC2)OCc2ccccc23)cc1

- Kd [1]: > 440 µM
Compound: O=C(O)CNC(=O)c1cccc(S(=O)(=O)N2CCC(c3ccccc3)CC2)c1
